Data on ten substances can be found in patent publication US20130205416A1 (priority 2010, published 2013).

For data set [1], the system named is A/WSN/33 H1N1 virus. The class given is cell-based, Influenza A virus.
Data set [2] has as its system H3N2 viruses (A/Udorn and A/Victoria/3/75). Conditions: for IC50: viruses (A/Udorn and A/Victoria/3/75).
The subject of data set [3] is H1N1 viruses (A/WSN/33 and A/England/195/09). The following applies: for IC50: viruses (A/WSN/33 and A/England/195/09).
Data set [4] concerns A/WSN/33 H1N1 virus. It counts as cell-based, Influenza A virus. This is another data set of the same source.
A further data set deals with A/WSN/33 influenza virus. The arrangement: species or system BALB/c mice. Conditions: mouse.
Data set [5] deals with PR8/Vic H3N2 virus (A/Victoria/3/75). The class given is cell-based, Influenza A virus.
In data set [6] the test system is PR8/Eng09 H1N1 virus (A/England/195/09). The class given is cell-based, Influenza A virus.
Data set [7] has as its system PR8/Viet H5N1 virus (A/Vietnam/1194/04). The class given is cell-based, Influenza A virus.
For data set [8] the following is noted: mouse, in vivo.
Data set [9] has as its system human parainfluenza virus. The class given is cell-based.
Data set [10] relates to Semliki Forest virus (SFV). It counts as cell-based.
Data set [11] relates to attachment of A/WSN/33 (H1N1) virus to MDCK cells. It counts as cell-based, Influenza A virus.
For data set [12], the target named is recombinant Haemagglutinin (HA) (California 04/2009 H1N1 Influenza A) (Influenza A virus, UniProt C3W5S1). It counts as binding.

Where “and” joins values, the source holds several entries; their conditions need not be identical. Equal entries are not always repeated. Square brackets hold non-standard residues; d marks the D form. Ends that are not written are not given here.

recombinant Haemagglutinin (HA) (California 04/2009 H1N1 Influenza A), sequence (C3W5S1 entry or part of it, added parts left off): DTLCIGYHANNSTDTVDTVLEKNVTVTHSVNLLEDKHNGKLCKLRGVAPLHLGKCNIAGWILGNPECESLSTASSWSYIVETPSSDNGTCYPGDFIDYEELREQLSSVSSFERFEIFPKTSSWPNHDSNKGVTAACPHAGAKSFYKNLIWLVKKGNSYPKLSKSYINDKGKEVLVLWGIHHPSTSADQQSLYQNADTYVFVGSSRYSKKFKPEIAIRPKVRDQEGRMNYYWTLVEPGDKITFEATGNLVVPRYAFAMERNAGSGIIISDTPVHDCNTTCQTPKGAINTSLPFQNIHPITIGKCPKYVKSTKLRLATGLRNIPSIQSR

A word on the IC50: it is the concentration at which inhibition is half-maximal. Lower therefore signals inhibition by little substance. FFVIFYRRKK [FP9, FFVIFYRRKK]: in the data set on A/WSN/33 H1N1 virus [1], the “anti-viral activity” value is reported as “substantial anti-viral activity” and the “knockdown of plaque formation” value came to 94%. Besides, the “inhibition of H3N2 infection” value in data set [2] is listed as “to a lesser extent”. Further, in [3], the “inhibition of H1N1 infection” value is given as “very effective” and it took 1500 nM to reach half-maximal inhibition (IC50).

For the substance “FP1-D: FP1 prepared with D-amino acids (SEQ ID NO 20) ([dW][dL][dV][dF][dF][dV][dI][dF][dY][dF][dF][dR])”, the “inhibition of H3N2 virus infection” value in data set [2] was “inhibit”. In the data set with A/WSN/33 H1N1 virus [4], the “reduction in virus yield” value was 85% and 68%. For the same substance, the “inhibition of H1N1 virus infection” value in data set [3] was “inhibit”.

In the case of IVWFYLFRFFVF [FP10, IVWFYLFRFFVF], the IC50 in data set [2] was 72 nM; in data set [3], below 1.48 nM. For the same substance, the “inhibition of lung viral titres in vivo” value with A/WSN/33 influenza virus is given as “values similar to the control groups”.

PEG300-RRKKWLVFFVIFYFFR [FP4-PEG]: in the data set with A/WSN/33 H1N1 virus [4], the “reduction in virus yield” value came out at 68% and the “virus yield” value is on record as “No virus was detected”.

Consider RRKK-IFYFFR [FP7], for which, in data set [2], the “inhibition of H3N2 infection” value was “failed to inhibit”. In addition, in data set [3], the “inhibition of H1N1 infection” value is recorded as “failed to inhibit”.

As for RRKKWLVFFVIYFFR [FP4, RRKKWLVFFVIYFFR], the knockdown is 97% in data set [5], 90% in data set [6] and “complete knockdown” in [7]. For the same substance, the “knockdown of plaque formation” value with A/WSN/33 H1N1 virus [1] is listed as 100%. Moreover, the agglutination end point in the data set with horse RBCs was found to be 6.25 µg/mL; in the data set with human RBCs, 0.78 µg/mL. Besides, the “reduction in virus yield” value in the data set on A/WSN/33 H1N1 virus [4] is 99% and 50%. Besides, the “inhibition of lung viral titres in vivo” value with A/WSN/33 influenza virus is on record as “effective”. Also, the clinical indications result with A/WSN/33 influenza virus (in vivo) is listed as “no clinical indications”. In the data set with A/WSN/33 influenza virus (in vivo), the survival of mice came out at 100%. Also, the “immunogenicity (serum IgG by ELISA)” value in data set [8] is reported as “neither FP2 nor FP4 peptides were immunogenic”. This substance also came in with an IC50 in data set [3] of 66 to 100 nM.

WLVFFVIAYFAR [FP2, WLVFFVIAYFAR]: the IC50 in [2] and in data set [3] was 1.6 nM each time.

WLVFFVIFYFFR [FP1]: the “knockdown of plaque formation” value in the data set with A/WSN/33 H1N1 virus [1] stood at 94%. In the data set on A/WSN/33 influenza virus, the “antiviral activity in vivo (body weight, lung virus titre)” value is reported as “potent antiviral activity”. Also, the antiviral effects result in data set [9] and in data set [10] was “no antiviral effects” throughout.

Regarding “WLVFFVIFYFFRRRKK [FP3, WLVFFVIFYFFRRRKK]”, the “knockdown of plaque formation” value with A/WSN/33 H1N1 virus [1] came out at 100%. In addition, in data set [2], the “inhibition of H3N2 infection” value is recorded as “only weakly inhibit”. Moreover, the IC50 in data set [2] is 16000 nM; in [3] it was 66 to 100 nM. Moreover, the agglutination end point with horse RBCs turned out to be 6.25 µg/mL; with human RBCs it was 0.78 µg/mL. Moreover, the “inhibition of viral attachment” value in data set [11] is on record as “completely inhibited”. Besides, the “binding to HA” value in data set [12] is recorded as “can bind Influenza A HA”.

With WLVFFVRRKK [FP8], in the data set on A/WSN/33 H1N1 virus [1], the “anti-viral activity” value is on record as “substantial anti-viral activity” and the “knockdown of plaque formation” value turned out to be 94%.
